The test system of assay [1] is M. tuberculosis MDR (resistant to isoniazid and rifampicin). Put plainly: microbe, parasite or virus in culture. It is filed as cell-based. The note with it: Mycobacterium tuberculosis, 504 h, read-out: MIC M. tb MDR.
Assay [2] deals with M. tuberculosis XDR (resistant to isoniazid, rifampicin, amikacin and moxifloxacin). Put plainly: microbe, parasite or virus in culture. The format is cell-based. The note with it: Mycobacterium tuberculosis, 504 h, read-out: MIC M. tb XDR.

Converted amounts (≈) assume the structure as drawn.

In the case of `C[C@]1(COc2ccc(-n3cc(-c4ccccc4)nn3)cc2)Cn2cc([N+](=O)[O-])nc2O1` [IA1], the MIC in assay [1] and in assay [2] was 4 µg/mL (≈ 9.56 µM) throughout.
In the case of `CCc1ccc(-c2cn(-c3ccc(OC[C@@]4(C)Cn5cc([N+](=O)[O-])nc5O4)cc3)nn2)cc1` [IA2, (R)-2-{4-[4-(4-ethylphenyl)-1H-1,2,3-triazol-1-yl]phenoxymethyl}-2,3-dihydro-2-methyl-6-nitroimidazo[2,1-b]oxazole], the MIC in assay [1] and in assay [2] was 4 µg/mL (≈ 8.96 µM) in each case.
`C[C@]1(COc2ccc(-n3cc(-c4ccc(F)cc4)nn3)cc2)Cn2cc([N+](=O)[O-])nc2O1` [IA3, (R)-2-{4-[4-(4-fluorophenyl)-1H-1,2,3-triazol-1-yl]phenoxymethyl}-2,3-dihydro-2-methyl-6-nitroimidazo[2,1-b]oxazole]: the MIC in assay [1] and in assay [2] was 0.25 µg/mL (≈ 0.573 µM) each time.
Regarding `C[C@]1(COc2ccc(-n3cc(-c4ccccc4F)nn3)cc2)Cn2cc([N+](=O)[O-])nc2O1` [IA4, (R)-2-{4-[4-(2-fluorophenyl)-1H-1,2,3-triazol-1-yl]phenoxymethyl}-2,3-dihydro-2-methyl-6-nitroimidazo[2,1-b]oxazole], the MIC in assay [1] and in assay [2] was 2 µg/mL (≈ 4.58 µM) each time.
As to `C[C@]1(COc2ccc(-n3cc(-c4ccc(OC(F)(F)F)cc4)nn3)cc2)Cn2cc([N+](=O)[O-])nc2O1` [IA5, (R)-2-{4-[4-(4-trifluoromethoxyphenyl)-1H-1,2,3-triazol-1-yl]phenoxymethyl}-2,3-dihydro-2-methyl-6-nitroimidazo[2,1-b]oxazole], the MIC in assay [1] and in assay [2] was 0.5 µg/mL (≈ 0.995 µM) in each case.
Regarding `C[C@]1(COc2ccc(-n3cc(-c4ccccc4C(F)(F)F)nn3)cc2)Cn2cc([N+](=O)[O-])nc2O1` [IA6, (R)-2-{4-[4-(2-trifluoromethylphenyl)-1H-1,2,3-triazol-1-yl]phenoxymethyl}-2,3-dihydro-2-methyl-6-nitroimidazo[2,1-b]oxazole], the MIC in assay [1] and in assay [2] was 1 µg/mL (≈ 2.06 µM) each time.
On to `C[C@]1(COc2ccc(-n3cc(-c4ccc(F)cc4F)nn3)cc2)Cn2cc([N+](=O)[O-])nc2O1` [IA7, (R)-2-{4-[4-(2,4-difluorophenyl)-1H-1,2,3-triazol-1-yl]phenoxymethyl}-2,3-dihydro-2-methyl-6-nitroimidazo[2,1-b]oxazole], for which the MIC in assay [1] and in assay [2] was 2 µg/mL (≈ 4.4 µM) throughout.
As to `Cc1ccc(-c2cn(-c3ccc(OC[C@@]4(C)Cn5cc([N+](=O)[O-])nc5O4)cc3)nn2)cc1` [IA8, (R)-2-{4-[4-(4-methylphenyl)-1H-1,2,3-triazol-1-yl]phenoxymethyl}-2,3-dihydro-2-methyl-6-nitroimidazo[2,1-b]oxazole], the MIC in assay [1] and in assay [2] was 1 µg/mL (≈ 2.31 µM) throughout.
Regarding `CC(C)c1ccc(-c2cn(-c3ccc(OC[C@@]4(C)Cn5cc([N+](=O)[O-])nc5O4)cc3)nn2)cc1` [IA9, (R)-2-{4-[4-(4-isopropylphenyl)-1H-1,2,3-triazol-1-yl]phenoxymethyl}-2,3-dihydro-2-methyl-6-nitroimidazo[2,1-b]oxazole], the MIC in assay [1] and in assay [2] was 1 µg/mL (≈ 2.17 µM) throughout.
Regarding `C[C@]1(COc2ccc(-n3cc(-c4cccc(F)c4)nn3)cc2)Cn2cc([N+](=O)[O-])nc2O1` [IA10, (R)-2-{4-[4-(3-fluorophenyl)-1H-1,2,3-triazol-1-yl]phenoxymethyl}-2,3-dihydro-2-methyl-6-nitroimidazo[2,1-b]oxazole], the MIC in assay [1] and in assay [2] was 2 µg/mL (≈ 4.58 µM) in each case.
With `COc1ccc(-c2cn(-c3ccc(OC[C@@]4(C)Cn5cc([N+](=O)[O-])nc5O4)cc3)nn2)cc1` [IA11, (R)-2-{4-[4-(4-methoxyphenyl)-1H-1,2,3-triazol-1-yl]phenoxymethyl}-2,3-dihydro-2-methyl-6-nitroimidazo[2,1-b]oxazole], the MIC in assay [1] and in assay [2] was 0.25 µg/mL (≈ 0.557 µM) each time.
In the case of `C[C@]1(COc2ccc(-n3cc(-c4cccc(OC(F)(F)F)c4)nn3)cc2)Cn2cc([N+](=O)[O-])nc2O1` [IA12, (R)-2-{4-[4-(3-trifluoromethoxyphenyl)-1H-1,2,3-triazol-1-yl]phenoxymethyl}-2,3-dihydro-2-methyl-6-nitroimidazo[2,1-b]oxazole], the MIC in assay [1] and in assay [2] was 0.5 µg/mL (≈ 0.995 µM) throughout.
Turning to `C[C@]1(COc2ccc(-n3cc(-c4cccc(C(F)(F)F)c4)nn3)cc2)Cn2cc([N+](=O)[O-])nc2O1` [IA13, (R)-2-{4-[4-(3-trifluoromethylphenyl)-1H-1,2,3-triazol-1-yl]phenoxymethyl}-2,3-dihydro-2-methyl-6-nitroimidazo[2,1-b]oxazole], the MIC in assay [1] and in assay [2] was 2 µg/mL (≈ 4.11 µM) in each case.
For `C[C@]1(COc2ccc(-n3cc(-c4ccccn4)nn3)cc2)Cn2cc([N+](=O)[O-])nc2O1` [IA14], the MIC in assay [1] and in assay [2] was 2 µg/mL (≈ 4.77 µM) throughout.
`CCCCCc1cn(-c2ccc(OC[C@@]3(C)Cn4cc([N+](=O)[O-])nc4O3)cc2)nn1` [IA15, (R)-2-{4-[4-pentyl-1H-1,2,3-triazol-1-yl]phenoxymethyl}-2,3-dihydro-2-methyl-6-nitroimidazo[2,1-b]oxazole]: the MIC in assay [1] and in assay [2] was 32 µg/mL (≈ 77.6 µM) throughout.
In the case of `CCCCCCCc1cn(-c2ccc(OC[C@@]3(C)Cn4cc([N+](=O)[O-])nc4O3)cc2)nn1` [IA16, (R)-2-{4-[4-heptyl-1H-1,2,3-triazol-1-yl]phenoxymethyl}-2,3-dihydro-2-methyl-6-nitroimidazo[2,1-b]oxazole], the MIC in assay [1] and in assay [2] was 4 µg/mL (≈ 9.08 µM) throughout.
For `C[C@]1(COc2cccc(-n3cc(-c4ccc(F)cc4)nn3)c2)Cn2cc([N+](=O)[O-])nc2O1` [IA17, (R)-2-{3-[4-(4-fluorophenyl)-1H-1,2,3-triazol-1-yl]phenoxymethyl}-2,3-dihydro-2-methyl-6-nitroimidazo[2,1-b]oxazole], the MIC in assay [1] and in assay [2] was 2 µg/mL (≈ 4.58 µM) each time.
As for `C[C@]1(COc2cccc(-n3cc(-c4ccc(C(F)(F)F)cc4)nn3)c2)Cn2cc([N+](=O)[O-])nc2O1` [IA18, (R)-2-{3-[4-(4-trifluoromethylphenyl)-1H-1,2,3-triazol-1-yl]phenoxymethyl}-2,3-dihydro-2-methyl-6-nitroimidazo[2,1-b]oxazole], the MIC in assay [1] and in assay [2] was 2 µg/mL (≈ 4.11 µM) in each case.
Consider `C[C@]1(COc2cccc(-n3cc(-c4ccc(OC(F)(F)F)cc4)nn3)c2)Cn2cc([N+](=O)[O-])nc2O1` [IA19, (R)-2-{3-[4-(4-trifluoromethoxyphenyl)-1H-1,2,3-triazol-1-yl]phenoxymethyl}-2,3-dihydro-2-methyl-6-nitroimidazo[2,1-b]oxazole], for which the MIC in assay [1] and in assay [2] was 4 µg/mL (≈ 7.96 µM) in each case.
With `C[C@]1(COc2cccc(-n3cc(-c4ccc(F)cc4F)nn3)c2)Cn2cc([N+](=O)[O-])nc2O1` [IA20, (R)-2-{3-[4-(2,4-difluorophenyl)-1H-1,2,3-triazol-1-yl]phenoxymethyl}-2,3-dihydro-2-methyl-6-nitroimidazo[2,1-b]oxazole], the MIC in assay [1] and in assay [2] was 4 µg/mL (≈ 8.8 µM) each time.
Regarding `C[C@]1(COc2ccccc2-n2cc(-c3ccc(F)cc3)nn2)Cn2cc([N+](=O)[O-])nc2O1` [IA21, (R)-2-{2-[4-(4-fluorophenyl)-1H-1,2,3-triazol-1-yl]phenoxymethyl}-2,3-dihydro-2-methyl-6-nitroimidazo[2,1-b]oxazole], the MIC in assay [1] and in assay [2] was 1 µg/mL (≈ 2.29 µM) in each case.
As for `C[C@]1(COc2ccccc2-n2cc(-c3ccc(C(F)(F)F)cc3)nn2)Cn2cc([N+](=O)[O-])nc2O1` [IA22, (R)-2-{2-[4-(4-trifluoromethylphenyl)-1H-1,2,3-triazol-1-yl]phenoxymethyl}-2,3-dihydro-2-methyl-6-nitroimidazo[2,1-b]oxazole], the MIC in assay [1] and in assay [2] was 4 µg/mL (≈ 8.22 µM) throughout.
Turning to `C[C@]1(COc2ccccc2-n2cc(-c3ccc(OC(F)(F)F)cc3)nn2)Cn2cc([N+](=O)[O-])nc2O1` [IA23, (R)-2-{2-[4-(4-trifluoromethoxyphenyl)-1H-1,2,3-triazol-1-yl]phenoxymethyl}-2,3-dihydro-2-methyl-6-nitroimidazo[2,1-b]oxazole], the MIC in assay [1] and in assay [2] was 4 µg/mL (≈ 7.96 µM) in each case.
Turning to `C[C@]1(COc2ccccc2-n2cc(-c3ccc(F)cc3F)nn2)Cn2cc([N+](=O)[O-])nc2O1` [IA24, (R)-2-{2-[4-(2,4-difluorophenyl)-1H-1,2,3-triazol-1-yl]phenoxymethyl}-2,3-dihydro-2-methyl-6-nitroimidazo[2,1-b]oxazole], the MIC in assay [1] and in assay [2] was 1 µg/mL (≈ 2.2 µM) each time.
As to `C[C@]1(COc2ccc(-n3cc(COc4ccc(OC(F)(F)F)cc4)nn3)cc2)Cn2cc([N+](=O)[O-])nc2O1` [IA25], the MIC in assay [1] and in assay [2] was 0.12 µg/mL (≈ 0.225 µM) each time.
On to `C[C@]1(COc2ccc(-n3cc(COc4ccc(F)cc4)nn3)cc2)Cn2cc([N+](=O)[O-])nc2O1` [IA26], for which the MIC in assay [1] and in assay [2] was 0.5 µg/mL (≈ 1.07 µM) in each case.
Consider `C[C@]1(COc2ccc(-n3cc(COc4ccc(C(F)(F)F)cc4)nn3)cc2)Cn2cc([N+](=O)[O-])nc2O1` [IA27], for which the MIC in assay [1] and in assay [2] was 0.25 µg/mL (≈ 0.484 µM) in each case.
As for `C[C@]1(COc2ccc(-n3cc(COc4ccccc4F)nn3)cc2)Cn2cc([N+](=O)[O-])nc2O1` [IA28], the MIC in assay [1] and in assay [2] was 0.12 µg/mL (≈ 0.257 µM) each time.
Turning to `Cc1ccc(OCc2cn(-c3ccc(OC[C@@]4(C)Cn5cc([N+](=O)[O-])nc5O4)cc3)nn2)cc1` [IA29], the MIC in assay [1] and in assay [2] was 32 µg/mL (≈ 69.2 µM) each time.
As for `CC(C)c1ccc(OCc2cn(-c3ccc(OC[C@@]4(C)Cn5cc([N+](=O)[O-])nc5O4)cc3)nn2)cc1` [IA30], the MIC in assay [1] and in assay [2] was 32 µg/mL (≈ 65.2 µM) in each case.
In the case of `CCc1ccc(OCc2cn(-c3ccc(OC[C@@]4(C)Cn5cc([N+](=O)[O-])nc5O4)cc3)nn2)cc1` [IA31], the MIC in assay [1] and in assay [2] was 0.25 µg/mL (≈ 0.525 µM) each time.
Take `CCC(C)c1ccc(OCc2cn(-c3ccc(OC[C@@]4(C)Cn5cc([N+](=O)[O-])nc5O4)cc3)nn2)cc1` (stereo partly shown) [IA32]: the MIC in assay [1] and in assay [2] was 0.12 µg/mL (≈ 0.238 µM) in each case.

Values taken from US9845330B2, “6-nitro-2,3-dihydroimidazo[2,1-b]oxazoles and a process for the preparation thereof” (priority 2013, dated 2017).
